Assays:
Experiment in all cases: In vitro cytotoxicity assay (MTT)
[1] = test system: NCI-N87; type: cell-based, human; conditions: 6 days incubation
Protocol: (§1) In vitro cytotoxicity of compounds of the disclosure was assessed on several cancerous human cell lines. Cells were plated in 96-well plates at an appropriate density depending on the cell line (between 1000 and 10 000 cells/well in 100µL of appropriate culture media) and incubated at 37°C for 24 hours. Serial dilutions of the tested compound previously dissolved in culture media (50µL) were added, and incubation was carried at 37°C out for 6 days. MTT (5mg/mL in PBS, 20µL, Sigma-Aldrich) was added into the wells, and incubation was continued for 1 to 4 hours at 37°C. Culture media was then carefully removed, and well content was homogeneously dissolved with acidified isopropanol. Absorbance values were measured on a microplate reader using a wavelength of 570 nm (with a reference wavelength of 690 nm). The IC50 concentration values compared to untreated control cells were determined using inhibition dose response curve fitting (GraphPad Prism 9). Exatecan mesylate (cat#HY-13631A) and CR8 (CAS# 294646-77-8; cat#HY-18340) were purchased from MedChemExpress (China).

[2] = test system: SKBR-3; type: cell-based, human; conditions: 6 days incubation
Protocol: as §1

[3] = test system: BT-474; type: cell-based, human; conditions: BT-474, 6 days incubation, MTT
Protocol: as §1

[4] = test system: MDA-MB-453; type: cell-based, human; conditions: 6 days incubation
Protocol: as §1

[5] = test system: MDA-MB-231; type: cell-based, human; conditions: 6 days incubation
Protocol: as §1

[6] = test system: JIMT-1; type: cell-based, human; conditions: 6 days incubation
Protocol: as §1

[7] = test system: MCF-7; type: cell-based; conditions: Homo sapiens, MCF7, 144 h, 6 days incubation
Protocol: as §1

[8] = test system: HT-29; type: cell-based; conditions: Homo sapiens, 144 h, 6 days incubation
Protocol: as §1

[9] = test system: BXPC3; type: cell-based; conditions: Homo sapiens, BXPC-3, 144 h, 6 days incubation
Protocol: as §1

[10] = Homo sapiens, MDA-MB-453, 144 h
[11] = Homo sapiens, MDA-MB-231, 144 h

SMILES: NCCNc1nc(NCc2ccc(-c3ccccn3)cc2)n2ncc(Br)c2n1 [Compound 2638]
- IC50 ([1]; Homo sapiens, NCI-N87, 144 h): 0.42 nM
- IC50 ([2]; Homo sapiens, SK-BR-3, 144 h): 0.82 nM
- IC50 ([3]; Homo sapiens, BT-474, 144 h): 0.78 nM
- IC50 [4, 10]: 0.88 nM
- IC50 [5, 11]: 0.3 nM

SMILES: Brc1cnn2c(Nc3ccc(CN4CCOCC4)cc3)nc(NC3CCNCC3)nc12 [Compound 2554]
- IC50 [1]: > 100 nM
- IC50 [2]: > 100 nM
- IC50 [3]: > 100 nM
- IC50 [4]: > 100 nM
- IC50 [5]: > 100 nM
- IC50 [6]: > 100 nM

SMILES: Brc1cnn2c(NCc3ccc(-c4ccccn4)cc3)nc(N[C@@H]3CCNC3)nc12 [Compound 2656]
- IC50 ([1]; Homo sapiens, NCI-N87, 144 h): 1.42 nM
- IC50 ([2]; Homo sapiens, SK-BR-3, 144 h): 0.17 nM
- IC50 ([3]; Homo sapiens, BT-474, 144 h): 2.52 nM
- IC50 [4, 10]: 1.13 nM
- IC50 [5, 11]: 0.65 nM

SMILES: NC1CCN(c2nc(NCc3ccc(-c4ccccn4)cc3)n3ncc(Br)c3n2)CC1 [Compound 2559]
- IC50 [7]: 12.8 nM
- IC50 [8]: 0.21 nM
- IC50 [9]: 1.63 nM
- IC50 ([1]; Homo sapiens, NCI-N87, 144 h): 1.32 nM
- IC50 ([2]; Homo sapiens, SK-BR-3, 144 h): 3.73 nM
- IC50 ([3]; Homo sapiens, BT-474, 144 h): 2.63 nM
- IC50 [4, 10]: 1.52 nM
- IC50 [5, 11]: 1.35 nM
- IC50 ([6]; Homo sapiens, 144 h): 0.41 nM

SMILES: Brc1cnn2c(NCc3ccc(-c4ccccn4)cc3)nc(N3CCNCC3)nc12 [Compound 2601]
- IC50 [7]: 15.4 nM
- IC50 [8]: 0.13 nM
- IC50 [9]: 1.72 nM
- IC50 ([1]; Homo sapiens, NCI-N87, 144 h): 2.7 nM
- IC50 ([2]; Homo sapiens, SK-BR-3, 144 h): 3.61 nM
- IC50 ([3]; Homo sapiens, BT-474, 144 h): 1.86 nM
- IC50 [4, 10]: 1.92 nM
- IC50 [5, 11]: 0.86 nM
- IC50 ([6]; Homo sapiens, 144 h): 0.45 nM

SMILES: N[C@H]1CC[C@H](Nc2nc(Nc3ccc(CN4CCOCC4)cc3)n3ncc(Br)c3n2)CC1 [Compound 2533]
- IC50 ([1]; Homo sapiens, NCI-N87, 144 h): > 100 nM
- IC50 ([2]; Homo sapiens, SK-BR-3, 144 h): > 100 nM
- IC50 ([3]; Homo sapiens, BT-474, 144 h): > 100 nM
- IC50 [4, 10]: > 100 nM
- IC50 [5, 11]: > 100 nM
- IC50 ([6]; Homo sapiens, 144 h): > 100 nM

SMILES: N[C@H]1CC[C@H](CNc2nc(NCc3ccc(-c4ccccn4)cc3)n3ncc(Br)c3n2)CC1 [Compound 2635]
- IC50 [7]: > 100 nM
- IC50 [8]: 8.93 nM
- IC50 [9]: 39.7 nM
- IC50 ([1]; Homo sapiens, NCI-N87, 144 h): 15.9 nM
- IC50 ([2]; Homo sapiens, SK-BR-3, 144 h): 0.83 nM
- IC50 ([3]; Homo sapiens, BT-474, 144 h): 23.1 nM
- IC50 [4, 10]: 17.9 nM
- IC50 [5, 11]: 12.9 nM
- IC50 ([6]; Homo sapiens, 144 h): 3.52 nM

SMILES: N#Cc1cnn2c(NCc3ccc(-c4ccccn4)cc3)nc(N[C@H]3CC[C@H](N)CC3)nc12 [Compound 2478]
- IC50 [1]: 6.88 nM
- IC50 [2]: 17.6 nM
- IC50 [3]: 1.72 nM
- IC50 [4]: 1.34 nM
- IC50 [5]: 1.64 nM
- IC50 [6]: 1.18 nM

SMILES: Brc1cnn2c(NCc3ccc(-c4ccccn4)cc3)nc(NCC3CCNCC3)nc12 [Compound 2569]
- IC50 ([1]; Homo sapiens, NCI-N87, 144 h): 19.7 nM
- IC50 ([2]; Homo sapiens, SK-BR-3, 144 h): 62.6 nM
- IC50 ([3]; Homo sapiens, BT-474, 144 h): 15.2 nM
- IC50 [4, 10]: 12.8 nM
- IC50 [5, 11]: 11.2 nM
- IC50 ([6]; Homo sapiens, 144 h): 6.7 nM

SMILES: NCCCNc1nc(NCc2ccc(-c3ccccn3)cc2)n2ncc(Br)c2n1 [Compound 2658]
- IC50 ([1]; Homo sapiens, NCI-N87, 144 h): 6.43 nM
- IC50 ([2]; Homo sapiens, SK-BR-3, 144 h): 0.77 nM
- IC50 ([3]; Homo sapiens, BT-474, 144 h): 4.57 nM
- IC50 [4, 10]: 7.84 nM
- IC50 [5, 11]: 1.98 nM

SMILES: Brc1cnn2c(NCc3ccc(-c4ccccn4)cc3)nc(N[C@@H]3CCCNC3)nc12 [Compound 2659, 8-bromo-N2-[(3R)-piperidin-3-yl]-N4-{[4-(pyridin-2-yl)phenyl]methyl}pyrazolo[1 ,5-a][1 ,3,5]triazine-2,4-diamine]
- IC50 ([1]; Homo sapiens, NCI-N87, 144 h): 0.34 nM
- IC50 [2]: 0.72 nM
- IC50 ([3]; Homo sapiens, BT-474, 144 h): 0.72 nM
- IC50 [4, 10]: 0.4 nM
- IC50 [5, 11]: 0.26 nM

SMILES: N[C@H]1CC[C@H](Nc2nc(NCc3ccc(-c4ccccn4)cc3)n3ncc(Cl)c3n2)CC1 [Compound 2629]
- IC50 [7]: 3.91 nM
- IC50 [8]: 0.36 nM
- IC50 [9]: 1.17 nM
- IC50 ([1]; Homo sapiens, NCI-N87, 144 h): 0.94 nM
- IC50 ([2]; Homo sapiens, SK-BR-3, 144 h): 0.27 nM
- IC50 ([3]; Homo sapiens, BT-474, 144 h): 1.75 nM
- IC50 [4, 10]: 0.77 nM
- IC50 [5, 11]: 0.66 nM
- IC50 ([6]; Homo sapiens, 144 h): 0.11 nM

SMILES: CNCCNc1nc(NCc2ccc(-c3ccccn3)cc2)n2ncc(Br)c2n1 [Compound 2586]
- IC50 [7]: 33.9 nM
- IC50 [8]: 0.45 nM
- IC50 [9]: 2.44 nM
- IC50 ([1]; Homo sapiens, NCI-N87, 144 h): 3.14 nM
- IC50 ([2]; Homo sapiens, SK-BR-3, 144 h): 6.59 nM
- IC50 ([3]; Homo sapiens, BT-474, 144 h): 1.73 nM
- IC50 [4, 10]: 2.47 nM
- IC50 [5, 11]: 1.44 nM
- IC50 ([6]; Homo sapiens, 144 h): 1.13 nM

SMILES: Brc1cnn2c(NCc3ccc(-c4ccccn4)cc3)nc(N[C@@H]3CCCNC3)nc12 [Compound 2660, 8-bromo-N2-[(3R)-piperidin-3-yl]-N4-{[4-(pyridin-2-yl)phenyl]methyl}pyrazolo[1,5-a][1 ,3,5]triazine-2,4-diamine]
- IC50 [1]: 0.49 nM
- IC50 [2]: 0.11 nM
- IC50 [3]: 1.25 nM
- IC50 [4]: 0.68 nM
- IC50 [5]: 0.43 nM

SMILES: N[C@H]1CC[C@H](Nc2nc(NCc3ccc(-c4ccccn4)cc3)n3ncc(I)c3n2)CC1 [Compound 2590]
- IC50 ([1]; Homo sapiens, NCI-N87, 144 h): 2.42 nM
- IC50 ([2]; Homo sapiens, SK-BR-3, 144 h): 2.55 nM
- IC50 ([3]; Homo sapiens, BT-474, 144 h): 1.33 nM
- IC50 [4, 10]: 1.76 nM
- IC50 [5, 11]: 0.74 nM
- IC50 ([6]; Homo sapiens, 144 h): 0.29 nM

SMILES: Nc1ccc(Nc2nc(NCc3ccc(-c4ccccn4)cc3)n3ncc(Br)c3n2)cc1 [Compound 2584]
- IC50 ([1]; Homo sapiens, NCI-N87, 144 h): 9.44 nM
- IC50 ([2]; Homo sapiens, SK-BR-3, 144 h): 25.9 nM
- IC50 ([3]; Homo sapiens, BT-474, 144 h): 9.72 nM
- IC50 [4, 10]: 12.3 nM
- IC50 [5, 11]: 7.17 nM
- IC50 ([6]; Homo sapiens, 144 h): 7.61 nM

SMILES: N[C@H]1CC[C@H](Nc2nc(NCc3ccc(-c4ccccn4)cc3)n3ncc(Br)c3n2)C1 [Compound 2669]
- IC50 ([1]; Homo sapiens, NCI-N87, 144 h): 0.39 nM
- IC50 ([2]; Homo sapiens, SK-BR-3, 144 h): 0.67 nM
- IC50 ([3]; Homo sapiens, BT-474, 144 h): 1.75 nM
- IC50 [4, 10]: 0.59 nM
- IC50 [5, 11]: 0.44 nM

SMILES: Brc1cnn2c(NCc3ccc(-c4ccccn4)cc3)nc(N[C@H]3CCNC3)nc12 [Compound 2657]
- IC50 [1]: 0.43 nM
- IC50 [2]: 0.13 nM
- IC50 [3]: 1.71 nM
- IC50 [4]: 0.77 nM
- IC50 [5]: 0.56 nM

SMILES: N[C@H]1CCCC[C@H]1Nc1nc(NCc2ccc(-c3ccccn3)cc2)n2ncc(Br)c2n1 [Compound 2672]
- IC50 ([1]; Homo sapiens, NCI-N87, 144 h): 0.55 nM
- IC50 ([2]; Homo sapiens, SK-BR-3, 144 h): 0.24 nM
- IC50 ([3]; Homo sapiens, BT-474, 144 h): 2.12 nM
- IC50 [4, 10]: 0.76 nM
- IC50 [5, 11]: 0.46 nM

SMILES: Brc1cnn2c(NCc3ccc(-c4ccccn4)cc3)nc(N3CCC(N4CCNCC4)CC3)nc12 [Compound 2622]
- IC50 [7]: > 100 nM
- IC50 [8]: 8.25 nM
- IC50 [9]: 36.1 nM
- IC50 ([1]; Homo sapiens, NCI-N87, 144 h): 3 nM
- IC50 ([2]; Homo sapiens, SK-BR-3, 144 h): 2.24 nM
- IC50 ([3]; Homo sapiens, BT-474, 144 h): 13.5 nM
- IC50 [4, 10]: 21.1 nM
- IC50 [5, 11]: 12.7 nM
- IC50 ([6]; Homo sapiens, 144 h): 4.84 nM

SMILES: O[C@H]1CN[C@H](CNc2nc(NCc3ccc(-c4ccccn4)cc3)n3ncc(Br)c3n2)C1 [Compound 2538]
- IC50 ([1]; Homo sapiens, NCI-N87, 144 h): 21.6 nM
- IC50 ([2]; Homo sapiens, SK-BR-3, 144 h): 39.1 nM
- IC50 ([3]; Homo sapiens, BT-474, 144 h): 6.54 nM
- IC50 [4, 10]: 8.12 nM
- IC50 [5, 11]: 8.75 nM
- IC50 ([6]; Homo sapiens, 144 h): 5.13 nM

SMILES: Brc1cnn2c(NCc3ccc(-c4ccccn4)cc3)nc(NC3CCCNC3)nc12 (racemic) [Compound 2606]
- IC50 [7]: 6.88 nM
- IC50 [8]: 0.13 nM
- IC50 [9]: 1.16 nM
- IC50 ([1]; Homo sapiens, NCI-N87, 144 h): 0.77 nM
- IC50 ([2]; Homo sapiens, SK-BR-3, 144 h): 1.23 nM
- IC50 ([3]; Homo sapiens, BT-474, 144 h): 0.92 nM
- IC50 [4, 10]: 0.64 nM
- IC50 [5, 11]: 0.46 nM
- IC50 ([6]; Homo sapiens, 144 h): 0.88 nM
